Data on one compound can be found in publication PMC5427923, “A novel CCR2 antagonist inhibits atherogenesis in apoE deficient mice by achieving high receptor occupancy” (Scientific Reports, 2017).

By Kd is commonly meant the constant that tells how readily two partners part at equilibrium. Broadly, the koff is a measure of how fast the partners let go of each other. By kon is commonly meant the second-order rate constant of association.

SMILES strings stand for the structures. Some results are limits rather than exact numbers.

The test system of one test is hCCR2b. Particulars: cited from earlier work.
In another test the test system is CCR2. The experiment in a line: Pharmacokinetics-based prediction of target occupancy. Set-up: species or system mouse. Particulars: calculated/simulated from plasma concentrations, single dose 5 mg/kg i.p., for 24 hours. How it is done: The target occupancy was calculated for each measurement of the drug concentration, according to equation (1), in which [C] is the concentration of the drug in the blood and KD is the drug target affinity.1 TargetOccupancy(%)=[C]/[C]+KD×100%
In addition, a simple mathematical model was used to simulate target occupancy for the observed in vivo pharmacokinetics and in vitro binding kinetics according to the equations in the next section (equations (3–5)).
To determine the maximal value of k off that would prolong the receptor occupancy even further, we used equation (2)[28], in which BF represents the percentage of target occupancy divided by 100 and t 1/2el represents the plasma elimination half-life (0.693/k el). In this case we set BF to 0.90, as 90% represents the minimum value of target occupancy to achieve efficacy. To obtain the elimination rate constant of compound 15a, a linear regression analysis of the natural logarithm of the concentrations versus time was performed, and the slope coefficient was used as the elimination rate constant k el.2 koff<0.693⋅(1−BF)/t1/2el
The concentrations of unbound drug in the blood [C] and target-bound drug [LR] were modeled according to equations (3–5). […]
The concentration of the target-bound drug is calculated according to equation (5):5 d[LR]/dt=kon⋅[C]⋅[Rfree]−koff⋅[LR] […]

Test [1] relates to leucocyte migration towards the peritoneal cavity. The experiment in a line: Pilot study: leucocyte migration towards the peritoneal cavity. Type of test: in vivo, mouse. To be noted: data not shown. How it is done: To measure plasma concentrations of 15a over time, Western type diet fed mice were injected with 5 mg/kg 15a, after which blood samples were taken at fixed time points (1, 2, 6 and 24 hours after injection). Blood samples were processed as described below under “Measurement of 15a plasma levels”. The final dose of 5 mg/kg/day was based on a pilot study in which two different doses (1.5 and 5 mg/kg/day) were tested using leucocyte migration towards the peritoneal cavity as a read-out. […] In addition, the dose of 5 mg/kg was also based on a previous study with TAK-779[38], in which a dose of 5 mg/kg was used.

The target of a further test is T1, murine CCR2 (mCCR2) (Mus musculus, UniProt P51683).
T1 construct: expressed in transfected cells; host or cells: CHO cells, transient transfection (PEI) with pcDNA3.1+ plasmid; membrane preparation
T1 sequence (P51683 whole entry): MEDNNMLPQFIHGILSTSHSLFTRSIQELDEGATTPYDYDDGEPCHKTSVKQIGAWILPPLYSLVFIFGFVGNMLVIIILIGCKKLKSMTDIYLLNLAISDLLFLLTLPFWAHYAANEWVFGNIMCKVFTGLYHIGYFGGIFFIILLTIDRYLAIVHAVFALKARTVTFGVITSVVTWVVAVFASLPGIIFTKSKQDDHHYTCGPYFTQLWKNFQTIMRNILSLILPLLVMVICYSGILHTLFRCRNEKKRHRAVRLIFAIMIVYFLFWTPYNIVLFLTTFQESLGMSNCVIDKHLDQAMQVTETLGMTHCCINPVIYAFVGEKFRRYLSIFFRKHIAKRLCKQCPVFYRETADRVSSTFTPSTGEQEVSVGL
As to the kind of experiment: [3H]INCB3344 displacement assay on CHO-mCCR2 membranes. Particulars: displacement of 5 nM [3H]INCB3344, CHO-mCCR2 membranes, 25 °C. Type of test: binding. How it is done:
Radioligand binding assays were performed in a 100 µL reaction volume containing 50 mM Tris-HCl buffer (pH 7.4), 5 mM MgCl2, 0.1% 3-[(3-cholamidopropyl)-dimethylammonio]-1-propanesulfonic acid (CHAPS), 5 nM [^3H]INCB3344 and 50 to 60 µg of membrane protein at 25 °C. Non-specific binding was determined with 10 μM of the cold ligand INCB3344. Displacement assays were carried out using 9 concentrations of competing ligand, ranging from 0.1 nM to 100 μM, for 120 min of incubation. The kinetic parameters of 15a were also determined at 25 °C using a competition association assay as previously described, [27]. […] Filter-bound radioactivity was determined by scintillation spectrometry after addition of Microscint scintillation cocktail (Perkin-Elmer, Groningen, the Netherlands). […]
All radioligand binding assays were analyzed using Prism 6.0 (GraphPad software, San Diego, CA, USA). […] Ki values were calculated from IC50 values obtained by non-linear regression analysis of the displacement assays and by using the Cheng-Prusoff equation[47]. Dissociation rate constants k off were determined by fitting the dissociation data using an exponential decay model. […] The kinetic profile of compound 15a was determined by calculation of its kinetic rate index (KRI) value. […] In addition, the RT was calculated by obtaining the reciprocal of the k off. Data obtained from in vivo experiments are expressed as mean ± SEM. […]

Take `CC(C)[C@]1(C(=O)N2CCc3ccc(C(F)(F)F)cc3C2)CC[C@@H](N[C@@H]2CCc3cc(Br)ccc32)C1` [15a, ((1S,3R)-3-(((R)-5-bromo-2,3-dihydro-1H-inden-1-yl)amino)-1-isopropylcyclopentyl)(7-(trifluoromethyl)-3,4-dihydroisoquinolin-2(1H)-yl)methanone]: the RT in the test with hCCR2b (hCCR2, ref Vilums et al. [24]) was 714 min. For the same compound, the “lifetime (RT) on hCCR2” value in the test with hCCR2b (hCCR2, ref [24]) was “more than 10 hours”. Also, the Ki at hCCR2b (hCCR2, ref [24], read-out: affinity for human CCR2) is 2.4 nM. Also, in the test on hCCR2b (hCCR2b, ref Vilums et al. [24]), the KRI is 1.7, the Kd is 0.175 nM, the koff was 2.33e-05 s⁻¹ and the kon was 130000 M⁻¹ s⁻¹. Moreover, the “target occupancy (CCR2)” value with CCR2 is more than 90%. Further, in test [1] (1.5 mg/kg per day), the “effective in inhibiting leucocyte migration” value is “not effective”. The “effective in inhibiting leucocyte migration” value in test [1] (5 mg/kg per day) is on record as “was”. At murine CCR2 (mCCR2), the Ki stood at 10.6 nM.
